{
  "source": "patent US12466838B2",
  "about": "“Crystalline form of a multi-tyrosine kinase inhibitor, method of preparation, and use thereof” (Mirati Therapeutics, Inc., priority 2019, dated 2025)",
  "key": {"[1]": {"assay": "Drying experiments (non-solvent based), solid form by XRPD", "type": "physicochemical", "conditions": "Vacuum oven drying, ~40° C., 2.5", "experimental": "(§1) XRPD patterns were collected with a PANalytical X'Pert PRO MPD diffractometer using an incident beam of Cu radiation produced using an Optix long, fine-focus source. An elliptically graded multilayer mirror was used to focus Cu Kα X-ray radiation through the specimen and onto the detector. Prior to the analysis, a silicon specimen (NIST SRM 640d) was analyzed to verify the observed position of the Si (111) peak is consistent with the NIST-certified position. A specimen of the sample was sandwiched between 3-μm-thick films and analyzed in transmission geometry. A beam-stop, short antiscatter extension, and antiscatter knife edge, were used to minimize the background generated by air. Soller slits for the incident and diffracted beams were used to minimize broadening from axial divergence. Diffraction patterns were collected using a scanning position-sensitive detector (X'Celerator) located 240 mm from the specimen and Data Collector software v. 2.2b.\nLimited non-solvent based experiments were conducted with materials generated during the stable form screen and included short term vacuum drying at elevated temperature."}, "[2]": {"assay": "Slurry interconversion experiments, solid form by XRPD", "type": "physicochemical", "conditions": "slurry of Forms C, D, and H in ethyl acetate", "experimental": "as §1\nTo investigate the relationship between selected materials produced during screening, limited slurry interconversion experiments were conducted. The experiments were performed by slurring seeds of solids of interest at ambient temperature in two different solvent systems. All materials were vacuum dried prior to the slurry (˜40° C., ˜2.5 hours). Solvent conditions were selected to achieve sufficient solubility of materials tested. […]"}, "[3]": {"system": "tyrosine kinases, including RET, CBL, CHR4q12, DDR and Trk", "conditions": "cited from earlier work"}, "[4]": {"system": "human xenograft tumor models", "conditions": "multiple human xenograft tumor models in mice; cited from earlier work"}, "[5]": {"assay": "Preliminary physical stability assessment of Form D, XRPD", "type": "physicochemical", "experimental": "as §1, with “2.2b. Preliminary physical stability assessment of Form D was performed. […] The XRPD patterns of the stressed materials show no significant peak shifts compared to the untreated samples. The XRPD pattern of Form D obtained from high water activity slurry is consistent with the pattern of the untreated material. However, small shifts of selected peaks were observed, possibly due to hydration.” for “2.2b.”"}},
  "note": "Entries after “also recorded” stand apart in the source; their conditions may differ.",
  "data": [
    {"smiles": "COCCNCc1ccc(-c2cc3nccc(Oc4ccc(NC(=O)C5(C(=O)Nc6ccc(F)cc6)CC5)cc4F)c3s2)nc1", "note": "[Form H, N-(3-fluoro-4-((2-(5-(((2-methoxyethyl)amino)methyl)pyridin-2-yl)thieno[3,2-b]pyridin-7-yl)oxy)phenyl)-N-(4-fluorophenyl)cyclopropane-1,1-dicarboxamide]", "values": [
      {"measurement": "XRPD Results after drying", "setting": "[1]", "result": "Form H"},
      {"measurement": "relative thermodynamic stability among Forms C, D and H", "setting": "[2]", "result": "least thermodynamically stable"}
    ]},
    {"smiles": "COCCNCc1ccc(-c2cc3nccc(Oc4ccc(NC(=O)C5(C(=O)Nc6ccc(F)cc6)CC5)cc4F)c3s2)nc1", "note": "[Compound 1, N-(3-fluoro-4-((2-(5-(((2-methoxyethyl)amino)methyl)pyridin-2-yl)thieno[3,2-b]pyridin-7-yl)oxy)phenyl)-N-(4-fluorophenyl)cyclopropane-1,1-dicarboxamide]", "values": [
      {"measurement": "inhibition of a closely related spectrum of tyrosine kinases", "setting": "[3]", "result": "potent inhibition"},
      {"measurement": "tumor regression", "setting": "[4]", "result": "shows tumor regression"}
    ]},
    {"smiles": "COCCNCc1ccc(-c2cc3nccc(Oc4ccc(NC(=O)C5(C(=O)Nc6ccc(F)cc6)CC5)cc4F)c3s2)nc1", "note": "[Form D]", "values": [
      {"measurement": "XRPD Results after drying", "setting": "[1]", "result": "remained unchanged; also recorded: Form D"},
      {"measurement": "XRPD Results (physical stability)", "setting": "[5]; Acetone/water (40/60), slurry, RT", "result": "Consistent with Form D, slight peak shifts"},
      {"measurement": "XRPD Results (physical stability)", "setting": "[5]; EtOH/water (40/60), slurry, RT", "result": "Consistent with Form D, slight peak shifts"},
      {"measurement": "XRPD Results (physical stability)", "setting": "[5]; Water, slurry, RT", "result": "Consistent with Form D, slight peak shifts"},
      {"measurement": "XRPD Results (physical stability)", "setting": "[5]; ~43% RH/RT", "result": "remained unchanged; also recorded: Consistent with Form D, no significant shifts of peaks"},
      {"measurement": "XRPD Results (physical stability)", "setting": "[5]; ~75% RH/RT", "result": "remained unchanged; also recorded: Consistent with Form D, no significant shifts of peaks"}
    ]},
    {"smiles": "COCCNCc1ccc(-c2cc3nccc(Oc4ccc(NC(=O)C5(C(=O)Nc6ccc(F)cc6)CC5)cc4F)c3s2)nc1", "note": "[Form C, N-(3-fluoro-4-((2-(5-(((2-methoxyethyl)amino)methyl)pyridin-2-yl)thieno[3,2-b]pyridin-7-yl)oxy)phenyl)-N-(4-fluorophenyl)cyclopropane-1,1-dicarboxamide]", "values": [
      {"measurement": "XRPD Results after drying", "setting": "[1]", "result": "Form C"}
    ]}
  ]
}
